The values below come from patent US8334126B2, “Coryneform host-vector systems comprising a chromosomal ALR gene which is attenuated or eliminated and methods of using” (priority 2000, dated 2012).

The subject of test [1] is Corynebacterium glutamicum ATCC13032[pTET3]. Nature of the test: Minimum inhibitory concentration, dilution antimicrobial susceptibility test (NCCLS M7-A4). Format: cell-based. Conditions: transformed strain ATCC13032[pTET3]; MÜLLER-HINTON-Bouillon.
Source text: (§1) The nutrient medium required for this test, “MÜLLER-HINTON-Bouillon”, was obtained from Merck KgaA (Darmstadt, Germany) and employed in accordance with the manufacturer's instructions. […] The plasmid DNA isolated from Corynebacterium glutamicum LP-6 with the aid of an alkaline lysis method (“NucleoBond Nucleic Acid Purification Kits and Cartridges User Manual (PT3167-1)”, Clonetech Laboratories GmbH, Heidelberg, Germany, 1997 I.B.R.) was then transferred to Corynebacterium glutamicum ATCC13032 by electrotransfer.
Test [2] concerns Corynebacterium glutamicum LP-6. The note with it: resistant test strain LP-6; MÜLLER-HINTON-Bouillon.
Source text: as §1
The subject of test [3] is Corynebacterium glutamicum ATCC13032. Description: Minimum inhibitory concentration, dilution antimicrobial susceptibility test (NCCLS M7-A4). Format: cell-based. The note with it: sensitive control strain ATCC13032; MÜLLER-HINTON-Bouillon.
Source text: as §1

`CN(C)[C@@H]1C(O)=C(C(N)=O)C(=O)[C@@]2(O)C(O)=C3C(=O)c4c(O)cccc4[C@@](C)(O)[C@H]3C[C@@H]12` [Tetracycline, tetracycline]: the Minimum inhibitory concentration result was “≦12 μg tetracycline per ml” in test [1], “≦12 μg tetracycline per ml” in test [2] and “≦0.75 μg tetracycline per ml” in test [3].
